Among the data in patent EP4741389A1, “KAT6 INHIBITOR” (Shanghai Qilu Pharmaceutical Research and Development …, priority 2023, dated 2025) are IC50 values, retold here.

pIC50: −log10 of the molar value.

For one assay, the target named is T1, KAT6A (Homo sapiens, UniProt Q92794).
T1 construct: purchased Active Motif 81223
The assay is described as follows: KATs acetyltransferase enzyme activity assay (TR-FRET), KAT6A. The class given is biochemical. Conditions: Biotin-H3 (1-21) and AcCOA, 90 minutes at room temperature. As for the experimental part: (§1) I. KATs acetyltransferase enzyme activity assay
• 1. The inhibitory effect of compounds on the acetyltransferase activity of KATs was evaluated using the Time-Resolved Fluorescence Resonance Energy Transfer (TR-FRET) assay. The assay was conducted in 384-well plates using Tris-HCl buffer. • 2. Compounds were diluted in DMSO and transferred to 384-well plates. […] Subsequently, 2.5 µL of a mixture containing KAT6A/KAT6B: Biotin-H3 (1-21, Genscript, C6829GL060) or KAT5/7/8: Bio-H4 (1-25, Genscript, C736BGL100) AcCOA (Sigma, A2056) was added, and the reaction proceeded at room temperature for 90 minutes. • 4. After the reaction, a detection mixture containing Europium-anti-acetyl-Histone H4 Lysine (H4Kac pan) Antibody (Perkin Elmer, TRF0412) and LANCE Ultra ULight™-Streptavidin in LANCE™ Detection buffer (10x) (Perkin Elmer, CR97-100) was added, followed by incubation at room temperature for 60 minutes. • 5. […] IC50 values were calculated by nonlinear regression using a four-parameter logistic equation in GraphPad Prism 8 software.
A general note: In TR-FRET formats the signal depends on donor and acceptor labels being close together.

The target in the next assay is T2, KAT6B (Homo sapiens, UniProt Q8WYB5).
T2 construct: purchased Active Motif 81224
The assay is described as follows: KATs acetyltransferase enzyme activity assay (TR-FRET), KAT6B. Conditions: Biotin-H3 (1-21) and AcCOA, 90 minutes at room temperature. It is filed as biochemical. As for the experimental part: as §1
• 1. The inhibitory effect of compounds on the acetyltransferase activity of KATs was evaluated using the Time-Resolved Fluorescence Resonance Energy Transfer (TR-FRET) assay. The assay was conducted in 384-well plates using Tris-HCl buffer. • 2. Compounds were diluted in DMSO and transferred to 384-well plates. Enzyme solutions (KAT6: active motif (kit), 81223; KAT6B: active motif, 81224; KAT5: SignalChem, K314-380G; KAT7: ICE, S2210F-H21HF; KAT8: Active motif, 81225) were added and the mixture was incubated at room temperature for 15 minutes. • 3. Subsequently, 2.5 µL of a mixture containing KAT6A/KAT6B: Biotin-H3 (1-21, Genscript, C6829GL060) or KAT5/7/8: Bio-H4 (1-25, Genscript, C736BGL100) AcCOA (Sigma, A2056) was added, and the reaction proceeded at room temperature for 90 minutes. • 4. After the reaction, a detection mixture containing Europium-anti-acetyl-Histone H4 Lysine (H4Kac pan) Antibody (Perkin Elmer, TRF0412) and LANCE Ultra ULight™-Streptavidin in LANCE™ Detection buffer (10x) (Perkin Elmer, CR97-100) was added, followed by incubation at room temperature for 60 minutes. • 5. HTRF signals were measured using a BMG PHERAstar FSX (Ratio: 665nm/620nm). IC50 values were calculated by nonlinear regression using a four-parameter logistic equation in GraphPad Prism 8 software.

Assay [1] deals with ZR-75-1 H3K23 Acetylation. The assay is described as follows: Histone H3 acetylation assay (H3K23 acetylation in ZR-75-1 cells). Conditions: Homo sapiens, 72 hours incubation, Odyssey CLx fluorescence, read-out: ZR-75-1 H3K23 Acetylation Inhibition IC50. It is filed as cell-based. As for the experimental part: III. Histone H3 acetylation assay
• 1. ZR-75-1 cells were seeded at 5000 cells/40 µL per well in 384-well plates and cultured overnight in an incubator at 37°C & 5% CO2. • 2. 40 nL of serially diluted compounds were added to the 384-well plates, followed by further incubation for 72 hours. • 3. The supernatant was discarded, and 8 w/v% paraformaldehyde (final concentration was 4 w/v%) was added directly to the wells to fix the cells at room temperature. • 4. After washing twice with PBS, a permeabilization agent (40 µL of methanol) was added and incubated for 10 minutes to permeabilize the cell membranes. • 5. After washing twice with PBS, a blocking buffer was added and incubated at room temperature for 1 hour for blocking. • 6. The blocking buffer was discarded, and 20 µL of primary antibodies (recombinant Anti-Histone H3 (acetyl K23) antibody and Anti-Histone H4 antibody) diluted in blocking buffer (1:1000 by volume dilution) were added, followed by incubation at 4°C overnight. • 7. After washing three times with PBST (0.05 vol% Tween-20 in PBS), 20 µL of fluorescent secondary antibodies (IRDye 680RD Goat anti-MOUSE, Licor, 926-68070; IRDye 800CW Goat anti-Rabbit, Licor, 926-32211) diluted in blocking buffer (1:2000 by volume dilution) were added, followed by incubation at room temperature, protected from light, for 1 hour. Then, the plates were washed three times with PBST. • 8. Scanning was performed using an Odyssey CLx, and the fluorescence signal value for each well was quantified. IC50 values were calculated by nonlinear regression using a four-parameter logistic equation in GraphPad Prism 8 software.

A further assay has as its system ZR-75-1 cells. Nature of the assay: ZR-75-1 cell proliferation assay (CellTiter-Glo). It is filed as cell-based. As to conditions: Homo sapiens, ZR-75-1, 240 h, total culture period of 10 days, read-out: ZR-75-1 Proliferation Inhibition IC50. How it is done: II. ZR-75-1 cell proliferation assay
• 1. ZR-75-1 cells were seeded in 96-well plates and cultured overnight in an incubator at 37°C & 5% CO2. • 2. Compounds were diluted using culture medium and added to the 96-well plates. The plates were placed back into the incubator for continued culture. Every 5 days, the cells were trypsinized, counted, and re-seeded. After the cells had fully adhered, compounds were added again for incubation, for a total culture period of 10 days. • 3. After the culture period, 60 µL of CellTiter-Glo reagent (Promega, G7573) was added to each well. The plates were protected from light and shaken for 2 minutes to lyse the cells, followed by further incubation at room temperature, protected from light, for 30 minutes. • 4. Luminescence signals were read using a BMG PHERAstar FSX. IC50 values were calculated by nonlinear regression using a four-parameter logistic equation in GraphPad Prism 8 software.

T1 sequence (Q92794 488-778 limits assumed): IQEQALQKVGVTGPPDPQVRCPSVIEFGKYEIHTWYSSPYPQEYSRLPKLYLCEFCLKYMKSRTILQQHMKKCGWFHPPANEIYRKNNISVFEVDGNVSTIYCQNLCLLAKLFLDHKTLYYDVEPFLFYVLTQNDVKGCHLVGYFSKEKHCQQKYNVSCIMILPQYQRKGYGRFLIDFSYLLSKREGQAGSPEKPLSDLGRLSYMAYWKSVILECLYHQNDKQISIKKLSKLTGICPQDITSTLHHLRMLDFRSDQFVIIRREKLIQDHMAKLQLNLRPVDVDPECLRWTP
T2 sequence (Q8WYB5 whole entry): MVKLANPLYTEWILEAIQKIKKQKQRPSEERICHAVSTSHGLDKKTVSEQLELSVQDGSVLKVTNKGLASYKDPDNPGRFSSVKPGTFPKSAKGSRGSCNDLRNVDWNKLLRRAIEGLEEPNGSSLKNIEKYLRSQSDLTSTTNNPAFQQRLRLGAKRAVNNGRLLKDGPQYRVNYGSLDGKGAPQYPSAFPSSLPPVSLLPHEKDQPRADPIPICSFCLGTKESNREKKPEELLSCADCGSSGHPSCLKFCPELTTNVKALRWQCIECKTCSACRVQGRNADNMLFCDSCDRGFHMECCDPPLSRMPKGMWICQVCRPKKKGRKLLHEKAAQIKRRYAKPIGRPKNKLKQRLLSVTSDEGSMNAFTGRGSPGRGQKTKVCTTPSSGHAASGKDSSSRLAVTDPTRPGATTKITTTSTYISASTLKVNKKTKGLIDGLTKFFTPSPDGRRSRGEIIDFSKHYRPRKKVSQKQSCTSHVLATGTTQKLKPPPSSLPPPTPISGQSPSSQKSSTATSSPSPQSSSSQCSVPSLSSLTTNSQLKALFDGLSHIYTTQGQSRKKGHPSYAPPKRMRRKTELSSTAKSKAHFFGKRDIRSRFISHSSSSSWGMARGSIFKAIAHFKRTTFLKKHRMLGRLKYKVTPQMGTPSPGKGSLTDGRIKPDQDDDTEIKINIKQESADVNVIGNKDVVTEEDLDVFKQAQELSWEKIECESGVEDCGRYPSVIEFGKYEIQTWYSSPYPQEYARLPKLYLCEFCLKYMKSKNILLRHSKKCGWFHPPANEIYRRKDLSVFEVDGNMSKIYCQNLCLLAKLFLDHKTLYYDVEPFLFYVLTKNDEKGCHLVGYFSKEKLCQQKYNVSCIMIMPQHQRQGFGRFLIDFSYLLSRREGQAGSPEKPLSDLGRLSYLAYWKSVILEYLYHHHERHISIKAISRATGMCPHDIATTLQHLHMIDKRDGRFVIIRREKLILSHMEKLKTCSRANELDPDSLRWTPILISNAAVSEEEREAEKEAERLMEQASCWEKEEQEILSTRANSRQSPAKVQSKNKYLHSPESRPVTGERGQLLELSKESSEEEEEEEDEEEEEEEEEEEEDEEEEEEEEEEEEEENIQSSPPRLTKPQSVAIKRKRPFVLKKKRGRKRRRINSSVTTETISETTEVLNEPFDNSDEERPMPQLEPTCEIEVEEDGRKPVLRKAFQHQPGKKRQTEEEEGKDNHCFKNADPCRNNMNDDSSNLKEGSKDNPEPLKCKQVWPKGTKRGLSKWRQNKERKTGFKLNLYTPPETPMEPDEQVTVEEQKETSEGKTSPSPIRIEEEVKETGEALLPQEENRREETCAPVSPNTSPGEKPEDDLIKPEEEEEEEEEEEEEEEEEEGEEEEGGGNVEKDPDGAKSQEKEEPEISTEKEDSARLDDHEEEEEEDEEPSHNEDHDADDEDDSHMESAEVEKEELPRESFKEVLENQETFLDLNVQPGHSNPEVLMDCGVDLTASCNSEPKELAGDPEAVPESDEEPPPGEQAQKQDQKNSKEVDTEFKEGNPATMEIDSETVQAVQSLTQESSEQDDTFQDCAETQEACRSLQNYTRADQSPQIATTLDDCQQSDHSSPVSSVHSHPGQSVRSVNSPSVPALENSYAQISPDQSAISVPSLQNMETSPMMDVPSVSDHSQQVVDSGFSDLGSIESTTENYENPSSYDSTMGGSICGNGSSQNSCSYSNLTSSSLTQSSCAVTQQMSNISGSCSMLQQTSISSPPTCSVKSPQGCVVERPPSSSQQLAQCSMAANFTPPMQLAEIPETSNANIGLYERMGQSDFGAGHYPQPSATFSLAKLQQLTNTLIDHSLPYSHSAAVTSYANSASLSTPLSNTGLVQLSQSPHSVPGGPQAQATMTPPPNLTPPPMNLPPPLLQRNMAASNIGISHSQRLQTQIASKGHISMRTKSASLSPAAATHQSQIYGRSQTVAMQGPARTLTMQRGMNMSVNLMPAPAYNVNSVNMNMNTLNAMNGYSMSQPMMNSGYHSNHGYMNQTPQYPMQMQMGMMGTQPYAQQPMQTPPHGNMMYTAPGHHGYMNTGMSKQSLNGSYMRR

As for `COc1cc2c(cc1S(=O)(=O)Nc1noc3cc(Cn4cccn4)cc(OC)c13)COCCO2` [Compound 9, N-(6-((1H-Pyrazol-1-yl)methyl)-4-methoxybenzo[d]isoxazol-3-yl)-8-methoxy-2,3-dihyd ro-5H-benzo[e][1,4]dioxepine-7-sulfonamide], the values for the pIC50 (at KAT6A; against KAT6B; in assay [1]) were 8.80, 8.02 and 8.68, respectively.

Regarding `[2H]C([2H])(c1cc(OC)c2c(NS(=O)(=O)c3c(OC)ccc4c3OC[C@@H]3C[C@H]43)noc2c1)n1cccn1` [Compound 42, (1aR,7bS)-N-(6-((1H-Pyrazol-1-yl)methyl-d2)-4-methoxybenzo[d]isoxazol-3-yl)-5-methoxy-1,1a,2,7b-tetrahydrocyclopropa[c]chromene-4-sulfonamide], the results for the pIC50 at KAT6A, with ZR-75-1 cells and at KAT6B were 8.96, 10.00 and 8.80, respectively.

Turning to `COc1ccc2c(c1S(=O)(=O)Nc1noc3cc(Oc4nccs4)cc(OC)c13)OC[C@@H]1C[C@H]21` [Compound 47, (1aR,7bS)-5-Methoxy-N-(4-methoxy-6-(thiazol-2-yloxy)benzo[d]isoxazol-3-yl)-1,1a,2,7 b-tetrahydrocyclopropa[c]chromene-4-sulfonamide], the pIC50 is 9.10 on KAT6A, 8.82 on KAT6B and 8.47 in assay [1].

Take `COc1ccc2c(c1S(=O)(=O)Nc1noc3cc(Cn4cccn4)c4c(c13)OCCC4)OCCCO2` [Compound 22, N-(5-((1H-Pyrazol-1-yl)methyl)-3,4-dihydro-2H-chromeno[8,7-d]isoxazol-9-yl)-7-methoxy-3,4-dihydro-2H-benzo[b][1,4]dioxepine-6-sulfonamide]: the pIC50 on KAT6A is 8.82; in the assay with ZR-75-1 cells, 9.30; on KAT6B, 8.14.

Regarding `COc1ccc2c(c1S(=O)(=O)Nc1noc3cc(Cn4cccn4)cc(OC)c13)OCC(F)(F)CO2` [Compound 11, N-(6-((1H-Pyrazol-1-yl)methyl)-4-methoxybenzo[d]isoxazol-3-yl)-3,3-difluoro-7-methoxy-3,4-dihydro-2H-benzo[b] [1,4]dioxepine-6-sulfonamide], the pIC50 against KAT6A was 8.60; against KAT6B, 7.33; in assay [1] it was 7.90.

Take `[2H]C([2H])([2H])Oc1cc(Cn2cccn2)cc2onc(NS(=O)(=O)c3c(OC)ccc4c3OCCCO4)c12` [Compound 46, 7-Methoxy-N-[6-(pyrazol-1-ylmethyl)-4-(trideuteriomethoxy)-1,2-benzoxazol-3-yl]-3,4-dihydro-2H-1,5-benzodioxepine-6-sulfonamide]: the results for the pIC50 against KAT6A, in the assay on ZR-75-1 cells and on KAT6B were 8.27, 9.00 and 7.47, respectively.

Regarding `COc1ccc2c(c1S(=O)(=O)Nc1noc3cc(Cn4cccn4)c(C)c(OC)c13)OCC1CC21` (stereo not shown) [Compound 24, N-(6-((1H-Pyrazol-1-yl)methyl)-4-methoxy-5-methylbenzo[d]isoxazol-3-yl)-5-methoxy-1,1a,2,7b-tetrahydrocyclopropa[c]chromene-4-sulfonamide], the values for the pIC50 against KAT6A and at KAT6B were 8.51 and 7.46, respectively.

Consider `[2H]C([2H])(c1cc(OC)c2c(NS(=O)(=O)c3c(OC)ccc4c3OCCCO4)noc2c1)n1cccn1` [Compound 43, N-(6-((1H-Pyrazol-1-yl)methyl-d2)-4-methoxybenzo[d]isoxazol-3-yl)-7-methoxy-3,4-di hydro-2H-benzo[b][1,4]dioxepine-6-sulfonamide], for which the pIC50 was 8.43 at KAT6A, 9.00 in the assay on ZR-75-1 cells and 7.54 at KAT6B.

As for `COc1ccc2c(c1S(=O)(=O)Nc1noc3cc(Cn4cccn4)c(C)c(OC)c13)OCC21CC1` [Compound 25, N-(6-((1H-Pyrazol-1-yl)methyl)-4-methoxy-5-methylbenzo[d]isoxazol-3-yl)-6-methoxy-2H-spiro[benzofuran-3,1'-cyclopropane]-7-sulfonamide], the values for the pIC50 at KAT6A and against KAT6B were 8.23 and 7.15, respectively.

Turning to `COc1ccc2c(c1S(=O)(=O)Nc1noc3cc(Cn4cccn4)c(C)cc13)OCCCO2` [Compound 17, N-(6-((1H-Pyrazol-1-yl)methyl)-5-methylbenzo[d]isoxazol-3-yl)-7-methoxy-3,4-dihydro-2H-benzo [b] [1,4] dioxepine-6-sulfonamide], the pIC50 in the assay on ZR-75-1 cells was 8.43.

As to `CCc1c(Cn2cccn2)cc2onc(NS(=O)(=O)c3c(OC)ccc4c3OCCCO4)c2c1OC` [Compound 26, N-(6-((1H-Pyrazol-1-yl)methyl)-5-ethyl-4-methoxybenzo[d]isoxazol-3-yl)-7-methoxy-3,4-dihydro-2H-benzo[b][1,4]dioxepine-6-sulfonamide], the pIC50 against KAT6A is 8.33; against KAT6B, 7.10.

In the case of `COc1cc2c(cc1S(=O)(=O)Nc1noc3cc(Cn4cccn4)cc(OC)c13)C1(CC1)CO2` [Compound 4, N-(6-((1H-Pyrazol-1-yl)methyl)-4-methoxybenzo[d]isoxazol-3-yl)-6-methoxy-2H-spiro[benzofuran-3,1'-cyclopropane]-5-sulfonamide], the pIC50 on KAT6A is 8.70; against KAT6B, 7.82.

For `CCOc1cc2c(NS(=O)(=O)c3c(OC)ccc4c3OCCCO4)noc2cc1Cn1cccn1` [Compound 18, N-(6-((1H-Pyrazol-1-yl)methyl)-5-ethoxybenzo[d]isoxazol-3-yl)-7-methoxy-3,4-dihydro-2H-benzo [b] [1,4] dioxepine-6-sulfonamide], the pIC50 in the assay with ZR-75-1 cells is 7.66.

`COc1ccc2c(c1S(=O)(=O)Nc1noc3cc(Cn4cccn4)cc(OC)c13)OC1CC21` (stereo not shown) [Compound 44, 4-Methoxy-N-[4-methoxy-6-(pyrazol-1-ylmethyl)-1,2-benzoxazol-3-yl]-la,6b-dihydro-1 H-cyclopropa[b]benzofuran-3-sulfonamide]: the pIC50 at KAT6A was 8.77; with ZR-75-1 cells, 9.52; at KAT6B, 8.07.

Regarding `[2H]C([2H])([2H])Oc1cc(Cn2cccn2)cc2onc(NS(=O)(=O)c3c(OC)ccc4c3OC[C@@H]3C[C@H]43)c12` [Compound 45, (1aR,7bS)-N-(6-((1H-Pyrazol-1-yl)methyl)-4-(methoxy-d3)benzo[d]isoxazol-3-yl)-5-met hoxy-1,1a,2,7b-tetrahydrocyclopropa[c]chromene-4-sulfonamide], the pIC50 was 9.22 against KAT6A, 10.40 with ZR-75-1 cells and 8.85 at KAT6B.
